In patent publication US10556907B2 (AbbVie Inc., priority 2015, dated 2020):
Counter-ions that a name gives are not always drawn.

Experiments:
Test in all cases: Method 1: intracellular Ca2+ release (FLIPR, Calcium 5) in recombinant CHO-K1 cells
Type in all cases: cell-based
[1] = biological target: T1, human S1PR5 receptor (Homo sapiens, UniProt Q9H228); conditions: agonist potency, determined with method 1 (symbols A-D); read-out: S1P5 EC50 range
T1 construct: host or cells: CHO-K1
Method in brief: (§1)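 Agonist EC50 values come from nonlinear fits of FLIPR Ca2+ fluorescence, normalized to the phospho-fingolimod reference curve. Recombinant CHO-K1 (receptor plus Gq/i5, aequorin) dye-loaded 1 h at 37° C in pH 7.4 Hepes/probenecid/BSA buffer. Antagonist mode: 10 min preincubation before phospho-fingolimod at EC80.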

[2] = biological target: T2, human S1PR1 receptor (Homo sapiens, UniProt P21453); conditions: (1): determined with method 1; read-out: S1P1 EC50
T2 construct: host or cells: CHO-K1
T2 sequence (P21453 whole entry): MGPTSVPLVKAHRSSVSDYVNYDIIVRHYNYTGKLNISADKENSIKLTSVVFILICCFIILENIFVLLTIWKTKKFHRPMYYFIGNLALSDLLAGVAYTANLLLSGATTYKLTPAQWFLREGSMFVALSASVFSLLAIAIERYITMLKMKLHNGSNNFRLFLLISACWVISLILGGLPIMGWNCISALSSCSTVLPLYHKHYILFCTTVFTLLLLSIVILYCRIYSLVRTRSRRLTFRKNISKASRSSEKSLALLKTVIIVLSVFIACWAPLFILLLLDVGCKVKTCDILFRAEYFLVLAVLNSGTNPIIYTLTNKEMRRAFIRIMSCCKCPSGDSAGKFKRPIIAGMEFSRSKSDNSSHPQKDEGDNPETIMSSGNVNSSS
Method in brief: as §1

[3] = biological target: T3, human S1PR4 receptor (Homo sapiens, UniProt O95977); conditions: (1): determined with method 1; read-out: S1P4 EC50
T3 construct: host or cells: CHO-K1
T3 sequence (O95977 1-384): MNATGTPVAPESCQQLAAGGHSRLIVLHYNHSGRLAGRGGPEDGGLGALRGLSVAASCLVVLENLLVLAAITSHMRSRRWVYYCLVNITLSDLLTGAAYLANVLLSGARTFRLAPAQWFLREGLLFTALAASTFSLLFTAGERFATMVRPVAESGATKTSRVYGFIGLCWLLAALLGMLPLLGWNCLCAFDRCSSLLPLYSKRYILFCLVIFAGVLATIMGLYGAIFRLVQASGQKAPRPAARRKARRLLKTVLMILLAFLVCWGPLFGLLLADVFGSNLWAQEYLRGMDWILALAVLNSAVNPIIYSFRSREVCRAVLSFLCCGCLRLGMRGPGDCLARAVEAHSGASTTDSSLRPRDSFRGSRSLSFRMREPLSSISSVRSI
Method in brief: as §1

T1 sequence (Q9H228 whole entry): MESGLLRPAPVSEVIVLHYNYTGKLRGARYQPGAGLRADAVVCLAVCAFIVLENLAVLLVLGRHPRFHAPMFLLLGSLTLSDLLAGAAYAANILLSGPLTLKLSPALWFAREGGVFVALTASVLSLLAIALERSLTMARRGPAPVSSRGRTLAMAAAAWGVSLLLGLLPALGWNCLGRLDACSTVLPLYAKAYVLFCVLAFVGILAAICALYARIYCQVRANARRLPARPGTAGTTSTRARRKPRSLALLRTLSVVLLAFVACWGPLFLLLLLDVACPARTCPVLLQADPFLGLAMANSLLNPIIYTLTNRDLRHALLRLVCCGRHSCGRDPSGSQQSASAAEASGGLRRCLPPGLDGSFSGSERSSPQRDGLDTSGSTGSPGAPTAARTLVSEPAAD

SMILES	EC50 [1]	EC50 [2]	EC50 [3]
O=C(O)C1CCC(N2CCc3nc(-c4ccc(OCc5ccc(Cl)cc5)cc4)ncc3C2)C1 (stereo not drawn) [Compound 295, 3-(2-(4-((4-chlorobenzyl)oxy)phenyl)-7,8-dihydropyrido[4,3-d]pyrimidin-6(5H)-yl)cyclopentanecarboxylic acid]	100 to 1000 nM	> 1000 nM	> 1000 nM
Cc1cc(-c2ncc3c(n2)CCN(C[C@@H](C)CC(=O)O)C3)ccc1OCc1ccc(Cl)cc1 [Compound 270, (S)-4-(2-(4-((4-chlorobenzyl)oxy)-3-methylphenyl)-7,8-dihydropyrido[4,3-d]pyrimidin-6(5H)-yl)-3-methylbutanoic acid]	10 to 100 nM	> 1000 nM	> 1000 nM
O=C(O)C1CCC(N2CCc3nc(-c4ccc(OCc5cccc(Cl)c5)cc4)ncc3C2)C1 (stereo not drawn) [Compound 288, 3-(2-(4-((3-chlorobenzyl)oxy)phenyl)-7,8-dihydropyrido[4,3-d]pyrimidin-6(5H)-yl)cyclopentanecarboxylic acid hydrochloride]	100 to 1000 nM	> 1000 nM	> 1000 nM
O=C(O)CN1CCc2nc(-c3ccc(OCc4cccc(F)c4)cc3)ncc2C1 [Compound 27, 2-(2-(4-((3-fluorobenzyl)oxy)phenyl)-7,8-dihydropyrido[4,3-d]pyrimidin-6(5H)-yl)acetic acid]	10 to 100 nM	> 1000 nM	> 1000 nM
O=C(O)CN1CCc2nc(-c3ccc(OCc4cccc(F)c4F)cc3)ncc2C1 [Compound 28, 2-(2-(4-((2,3-difluorobenzyl)oxy)phenyl)-7,8-dihydropyrido[4,3-d]pyrimidin-6(5H)-yl)acetic acid]	10 to 100 nM	> 1000 nM	< 1000 nM
CC(C)(CC(=O)O)CN1CCc2nc(-c3ccc(OCc4ccc(Cl)c(Cl)c4)cc3)ncc2C1 [Compound 217, 4-(2-(4-((3,4-dichlorobenzyl)oxy)phenyl)-7,8-dihydropyrido[4,3-d]pyrimidin-6(5H)-yl)-3,3-dimethylbutanoic acid]	100 to 1000 nM	> 1000 nM	> 1000 nM
C[C@H](CC(=O)O)CN1CCc2nc(-c3ccc(C(F)(F)Cc4ccc(Cl)cc4)cc3)ncc2C1 (single isomer, unassigned) [Compound 294, 4-(2-(4-(2-(4-chlorophenyl)-1,1-difluoroethyl)phenyl)-7,8-dihydropyrido[4,3-d]pyrimidin-6(5H)-yl)-3-methylbutanoic acid]	100 to 1000 nM	> 1000 nM	> 1000 nM
Cc1ccc(COc2ccc(-c3ncc4c(n3)CCN(CC(C)CC(=O)O)C4)cc2C)cc1 (stereo not drawn) [Compound 301, 3-methyl-4-[2-[3-methyl-4-(p-tolylmethoxy)phenyl]-7,8-dihydro-5H-pyrido[4,3-d]pyrimidin-6-yl]butanoic acid 2,2,2-trifluoroacetic acid salt]	100 to 1000 nM	> 1000 nM	> 1000 nM
CC(CC(=O)O)CN1CCc2nc(-c3ccc(/C=C/c4ccc(Cl)cc4F)cc3)ncc2C1 (stereo not drawn) [Compound 282]	10 to 100 nM	> 1000 nM	> 1000 nM
CC(C)(CC(=O)O)CN1CCc2nc(-c3ccc(OCc4cccc(Cl)c4)cc3)ncc2C1 [Compound 216, 4-(2-(4-((3-chlorobenzyl)oxy)phenyl)-7,8-dihydropyrido[4,3-d]pyrimidin-6(5H)-yl)-3,3-dimethylbutanoic acid]	1000 to 10000 nM	> 1000 nM	> 1000 nM
O=C(O)CC1CC(N2CCc3nc(-c4ccc(OCc5cc(Cl)cc(Cl)c5)cc4)ncc3C2)C1 (stereo not drawn) [Compound 5, 2-(3-(2-(4-((3,5-dichlorobenzyl)oxy)phenyl)-7,8-dihydropyrido[4,3-d]pyrimidin-6(5H)-yl)cyclobutyl)acetic acid]	100 to 1000 nM	> 1000 nM	> 1000 nM
CCc1cccc(Cl)c1COc1nc2c(cc1F)CN(C1CC(C(=O)O)C1)CC2 (stereo not drawn) [Compound 183, 3-(2-((2-chloro-6-ethylbenzyl)oxy)-3-fluoro-7,8-dihydro-1,6-naphthyridin-6(5H)-yl)cyclobutanecarboxylic acid]	100 to 1000 nM	> 1000 nM	> 1000 nM
O=C(O)C1CC(N2CCc3nc(C#Cc4ccccc4)c(F)cc3C2)C1 (stereo not drawn) [Compound 184, 3-(3-fluoro-2-(phenylethynyl)-7,8-dihydro-1,6-naphthyridin-6(5H)-yl)cyclobutanecarboxylic acid]	1000 to 10000 nM	> 1000 nM	> 1000 nM

More lines, now with the values ahead:

EC50 [1]	EC50 [2]	EC50 [3]	SMILES
100 to 1000 nM	> 1000 nM	> 1000 nM	Cc1cc(-c2ncc3c(n2)CCN(C[C@H](C)CC(=O)O)C3)ccc1OCc1ccc(Cl)cc1 [Compound 318, (R)-4-(2-(4-((4-chlorobenzyl)oxy)-3-methylphenyl)-7,8-dihydropyrido[4,3-d]pyrimidin-6(5H)-yl)-3-methylbutanoic acid]
100 to 1000 nM	> 1000 nM	< 1000 nM	Cc1cc(-c2ncc3c(n2)CCN(CC(C)CC(=O)O)C3)ccc1OCc1c(F)cccc1F (stereo not drawn) [Compound 316, 4-[2-[4-[(2,6-difluorophenyl)methoxy]-3-methyl-phenyl]-7,8-dihydro-5H-pyrido[4,3-d]pyrimidin-6-yl]-3-methyl-butanoic acid 2,2,2-trifluoroacetic acid salt]
100 to 1000 nM	> 1000 nM	> 1000 nM	Cc1cc(-c2ncc3c(n2)CCN(CC(C)CC(=O)O)C3)ccc1OCc1ccc(C(C)C)cc1 (stereo not drawn) [Compound 310, 4-[2-[4-[(4-isopropylphenyl)methoxy]-3-methyl-phenyl]-7,8-dihydro-5H-pyrido[4,3-d]pyrimidin-6-yl]-3-methyl-butanoic acid 2,2,2-trifluoroacetic acid salt]
100 to 1000 nM	> 1000 nM	> 1000 nM	Cc1cc(-c2ncc3c(n2)CCN(CC(C)CC(=O)O)C3)ccc1OCc1ccccc1C(F)(F)F (stereo not drawn) [Compound 309, 3-methyl-4-[2-[3-methyl-4-[[2-(trifluoromethyl)phenyl]methoxy]phenyl]-7,8-dihydro-5H-pyrido[4,3-d]pyrimidin-6-yl]butanoic acid 2,2,2-trifluoroacetic acid salt]
1000 to 10000 nM	> 1000 nM	> 1000 nM	Cc1cccc(COc2ccc(-c3ncc4c(n3)CCN(CC(C)CC(=O)O)C4)cc2C)c1 (stereo not drawn) [Compound 320, 3-methyl-4-[2-[3-methyl-4-(m-tolylmethoxy)phenyl]-7,8-dihydro-5H-pyrido[4,3-d]pyrimidin-6-yl]butanoic acid 2,2,2-trifluoroacetic acid salt]
1000 to 10000 nM	> 1000 nM	> 1000 nM	CC(CC(=O)O)CN1CCc2nc(-c3ccc(C(F)(F)Cc4cccc(Cl)c4)cc3)ncc2C1 (stereo not drawn) [Compound 328, 4-(2-(4-(2-(3-chlorophenyl)-1,1-difluoroethyl)phenyl)-7,8-dihydropyrido[4,3-d]pyrimidin-6(5H)-yl)-3-methylbutanoic acid]
1000 to 10000 nM	> 1000 nM	> 1000 nM	CC(CC(=O)O)CN1Cc2cnc(-c3ccc(OCc4ccc(Cl)cc4)cc3)nc2CC1(C)C (stereo not drawn) [Compound 329, 4-(2-(4-((4-chlorobenzyl)oxy)phenyl)-7,7-dimethyl-7,8-dihydropyrido[4,3-d]pyrimidin-6(5H)-yl)-3-methylbutanoic acid]
